{
  "source": "paper PMC12752606",
  "about": "“METTL10‐Mediated PIAS3 Methylation Links Purine Metabolism to Gastric Cancer Progression” (Advanced Science, 2025)",
  "key": {"[1]": {"test_system": "T1, METTL10", "T1 construct": "purchased ICE Bioscience Inc", "assay": "MTase-Glo screening assay, METTL10 with Histone H4 peptide substrate", "format": "biochemical", "conditions": "10 µM", "method": "To identify METTL10 inhibitors, an in‐silico screening was first conducted on an in‐house compound library comprising approximately 6000 structurally diverse molecules. Molecular docking simulations with the METTL10 protein identified 111 candidate compounds for further analysis. The methyltransferase activity of these candidates was assessed using the MTase‐Glo Methyltransferase Assay (Promega, V7601) according to the manufacturer's protocol. Briefly, the candidate compounds were preincubated with His‐METTL10 protein (1 µg) at 37 °C for 1 h in a methylation reaction buffer (50 mM Tris‐HCl (pH 8.0), 20 mM KCl, 5 mM DTT, 4 mM EDTA, and 20 µM SAM), followed by the addition of either the Histone H4 or PIAS3 peptide substrate for an additional 1 h. The reaction was then subjected to MTase‐Glo reagent buffer for 30 min, followed by MTase‐Glo detection buffer for another 30 min. Luminescence was measured using a luminometer (Promega), and IC50 values were calculated using GraphPad Prism 8 software."}, "[2]": {"assay": "Plasma pharmacokinetics after IV and PO administration", "format": "in vivo, male Sprague–Dawley rats", "method": "LZQ‐02‐023‐1 was administered to male Sprague–Dawley (SD) rats (n = 3 per group) via intravenous injection at a dose of 1 mg/kg or oral gavage at a dose of 10 mg/kg. Blood samples were collected at predetermined time points, and plasma concentrations of LZQ‐02‐023‐1 were determined using a validated LC‐MS/MS method. Briefly, working solutions of the analyte were prepared by diluting stock solutions with 50% acetonitrile in water to achieve serial concentrations (10, 20, 50, 100, 200, 500, 1000, 5000, and 10 000 ng/mL). Calibration standards were prepared by spiking 5 µL of working solution into 50 µL of blank SD rat plasma, resulting in final concentrations of 1, 2, 5, 10, 20, 50, 100, 500, and 1000 ng/mL in a total volume of 55 µL. Quality control (QC) samples were independently prepared at four concentrations (2, 5, 50, and 800 ng/mL) using blank SD rat plasma, following the same procedure as for the calibration standards. On the day of analysis, 55 µL of each calibration standard, QC sample, or unknown sample (prepared by mixing 50 µL of SD rat plasma with 5 µL of blank solution) was added to 200 µL of acetonitrile:methanol (1:1, v/v) containing an internal standard (IS) mixture for protein precipitation. The samples were vortexed for 30 s, centrifuged at 4000 rpm for 15 min at 4 °C, and the resulting supernatant was diluted threefold with water. A 10 µL aliquot of the diluted supernatant was injected into an AB Sciex Triple Quad 5500 LC‐MS/MS system for quantitative analysis. Pharmacokinetic parameters, including the maximum plasma concentration (Cmax), time to reach Cmax (Tmax), elimination half‐life (t1⁄2), area under the plasma concentration‐time curve (AUC0–t and AUC0–∞), clearance (CL), and volume of distribution (Vd), were calculated using noncompartmental analysis (NCA) in Phoenix WinNonlin 8.3 (Certara; Table S3, Supporting Information)."}, "[3]": {"conditions": "IV 1 mg/kg, individual rats R01-R03, 1 mg/kg"}, "[4]": {"conditions": "PO 10 mg/kg, individual rats R04-R06, 10 mg/kg"}},
  "note": "“And” between values parts separate entries of the source, which are not always exact repeats. Identical values can stand only once. Like-named read-outs stand apart in the source and are kept apart here.",
  "data": [
    {"smiles": "Cc1ccc(Nc2ncc3c(n2)N(C)C(=O)N(c2cccc(N)c2)C3)cn1", "note": "[LZQ-02-023-01, Three‐(3‐aminophenyl)‐1‐methyl‐7‐((6‐methylpyridin‐3‐yl)amino)‐3,4‐dihydropyrimido [4,5‐d] pyrimidin‐2 (1H)‐one]", "values": [
      {"measurement": "Inhibition of METTL10 activity toward histone H4", "setting": "[1]", "value": "significantly inhibited"},
      {"measurement": "AUC_%Extrap_obs, mean", "setting": "[2]; IV 1 mg/kg", "value": 1.09, "unit": "%"},
      {"measurement": "C0, mean", "setting": "[2]; IV 1 mg/kg", "value": 2.25, "unit": "µg/mL"},
      {"measurement": "Vss_obs, mean", "setting": "[2]; IV 1 mg/kg", "value": 0.660, "unit": "L/kg"},
      {"measurement": "Plasma concentration", "setting": "[2]; IV 1 mg/kg, 5 min, individual rats R01-R03, 1 mg/kg", "value": "0.532 µg/mL and 0.563 µg/mL"},
      {"measurement": "Plasma concentration", "setting": "[2]; IV 1 mg/kg, 0.25 h, individual rats R01-R03, 1 mg/kg", "value": "0.0355 µg/mL and 0.0268 µg/mL"},
      {"measurement": "Plasma concentration", "setting": "[2]; IV 1 mg/kg, 0.5 h, individual rats R01-R03, 1 mg/kg", "value": "0.0124 µg/mL and 0.016 µg/mL"},
      {"measurement": "Plasma concentration", "setting": "[2]; IV 1 mg/kg, 1 h, individual rats R01-R03, 1 mg/kg", "value": "0.00429 µg/mL and 0.00407 µg/mL"},
      {"measurement": "Plasma concentration", "setting": "[2]; IV 1 mg/kg, 2 h, individual rats R01-R03, 1 mg/kg", "value": "0.00211 µg/mL and 0.00186 µg/mL"},
      {"measurement": "Plasma concentration", "setting": "[2]; IV 1 mg/kg, 4 h, individual rats R01-R03", "value": "BLOQ (BLOQ = Below quantifiable limit of 1 ng/mL.)"},
      {"measurement": "Plasma concentration", "setting": "[2]; IV 1 mg/kg, 8 h, individual rats R01-R03", "value": "BLOQ (BLOQ = Below quantifiable limit of 1 ng/mL.)"},
      {"measurement": "Plasma concentration", "setting": "[2]; IV 1 mg/kg, 24 h, individual rats R01-R03", "value": "BLOQ (BLOQ = Below quantifiable limit of 1 ng/mL.)"},
      {"measurement": "AUCInf", "setting": "[2]; [3]", "value": "0.17 µg·h/mL and 0.195 µg·h/mL"},
      {"measurement": "AUC_%Extrap_obs", "setting": "[2]; [3]", "value": "1.46% and 1.11% and 0.712%"},
      {"measurement": "AUClast", "setting": "[2]; [3]", "value": "0.169 µg·h/mL and 0.193 µg·h/mL"},
      {"measurement": "C0", "setting": "[2]; [3]", "value": "2.058 µg/mL and 2.578 µg/mL"},
      {"measurement": "Cl_obs", "setting": "[2]; [3]", "value": "5.87 L/h/kg and 5.14 L/h/kg"},
      {"measurement": "MRTInf_obs", "setting": "[2]; [3]", "value": "7.2 min and 5.85 min"},
      {"measurement": "T1/2", "setting": "[2]; [3]", "value": "37.4 min and 31 min"},
      {"measurement": "Vss_obs", "setting": "[2]; [3]", "value": "0.772 L/kg and 0.707 L/kg and 0.501 L/kg"},
      {"measurement": "AUC_%Extrap_obs, mean", "setting": "[2]; PO 10 mg/kg", "value": 12.8, "unit": "%"},
      {"measurement": "F (bioavailability)", "setting": "[2]; PO 10 mg/kg vs IV 1 mg/kg, individual rats R04-R06", "value": "2.37% and 1.27%"},
      {"measurement": "Plasma concentration", "setting": "[2]; PO 10 mg/kg, 0.25 h, individual rats R04-R06, 10 mg/kg", "value": "0.039 µg/mL and 0.024 µg/mL and 0.00883 µg/mL"},
      {"measurement": "Plasma concentration", "setting": "[2]; PO 10 mg/kg, 0.5 h, individual rats R04-R06, 10 mg/kg", "value": "0.02 µg/mL and 0.0201 µg/mL"},
      {"measurement": "Plasma concentration", "setting": "[2]; PO 10 mg/kg, 1 h, individual rats R04-R06, 10 mg/kg", "value": "0.00733 µg/mL and 0.00663 µg/mL and 0.00354 µg/mL"},
      {"measurement": "Plasma concentration", "setting": "[2]; PO 10 mg/kg, 2 h, individual rats R04-R06, 10 mg/kg", "value": "0.00336 µg/mL and 0.0129 µg/mL and 0.00314 µg/mL"},
      {"measurement": "Plasma concentration", "setting": "[2]; PO 10 mg/kg, 4 h, individual rats R04-R06, 10 mg/kg", "value": "0.00202 µg/mL and 0.00136 µg/mL"},
      {"measurement": "Plasma concentration", "setting": "[2]; PO 10 mg/kg, 8 h, individual rats R04-R06", "value": "BLOQ (BLOQ = Below quantifiable limit of 1 ng/mL.)"},
      {"measurement": "Plasma concentration", "setting": "[2]; PO 10 mg/kg, 24 h, individual rats R04-R06", "value": "BLOQ (BLOQ = Below quantifiable limit of 1 ng/mL.)"},
      {"measurement": "AUCInf", "setting": "[2]; [4]", "value": "0.042 µg·h/mL and 0.0226 µg·h/mL"},
      {"measurement": "AUC_%Extrap_obs", "setting": "[2]; [4]", "value": "15.0% and 5.19% and 18.1%"},
      {"measurement": "AUClast", "setting": "[2]; [4]", "value": "0.0276 µg·h/mL and 0.0398 µg·h/mL and 0.0185 µg·h/mL"},
      {"measurement": "Cmax", "setting": "[2]; [4]", "value": "0.024 µg/mL and 0.0201 µg/mL"},
      {"measurement": "MRTInf_obs", "setting": "[2]; [4]", "value": "97.2 min and 134 min"},
      {"measurement": "T1/2", "setting": "[2]; [4]", "value": "101 min and 44.9 min and 125 min"},
      {"measurement": "Tmax", "setting": "[2]; [4]", "value": 30, "unit": "min"},
      {"measurement": "concentration at 5 min", "setting": "[2]; male, Sprague-Dawley, rat, plasma, iv, 1 mg/kg, IV 1 mg/kg, 5 min, individual rats R01-R03, read-out: Plasma concentration", "value": 0.504, "unit": "µg/mL"},
      {"measurement": "concentration at 5 min", "setting": "[2]; male, Sprague-Dawley, rat, plasma, iv, 1 mg/kg, IV 1 mg/kg, 5 min, read-out: Plasma concentration, mean", "value": 0.533, "unit": "µg/mL"},
      {"measurement": "concentration at 0.25 h", "setting": "[2]; male, Sprague-Dawley, rat, plasma, iv, 1 mg/kg, IV 1 mg/kg, 0.25 h, individual rats R01-R03, read-out: Plasma concentration", "value": 0.0286, "unit": "µg/mL"}
    ]}
  ]
}
